Measured values: ChEMBL document CHEMBL5528050, “Discovery of a Novel Series of Homo sapiens Caseinolytic Protease P Agonists for Colorectal Adenocarcinoma Treatment via ATF3-Dependent Integrated Stress Response” (J Med Chem, 2024)
Active and inactive are the calls of the source. No cut-off for these calls is given here.

How the values were obtained:
HCT-116 [1] = assay: cells; conditions: Homo sapiens, HCT-116, 72 h
Description: Antiproliferative activity against human HCT-116 cells assessed as inhibition of cell growth measured after 72 hrs by CCK-8 method

HCT-116 [2] = assay: Induction of apoptosis in human HCT-116 cells assessed as apoptotic rate at medium dose measured after 48 hrs by annexin V-FITC/7-AAD based flow cytometry analysis relative to control; assay type: functional
[3] = target: T1, ATP-dependent Clp protease proteolytic subunit, mitochondrial (Homo sapiens, UniProt Q16740); assay: Agonist activity at human ClpP expressed in Escherichia coli using AC-WLA-AMC as substrate measured every 5 mins for 1 hr by fluorescence based analysis
HCT-15 = assay: cells; conditions: Homo sapiens, HCT-15, 72 h
Description: Antiproliferative activity against human HCT-15 cells assessed as inhibition of cell growth measured after 72 hrs by CCK-8 method

[4] = Antiproliferative activity against HEK293 cells assessed as inhibition of cell growth measured after 72 hrs by CCK-8 method; assay type: toxicity, cell-based; conditions: human
HCT-116 [5] = assay: Induction of apoptosis in human HCT-116 cells assessed as apoptotic rate at low dose measured after 48 hrs by annexin V-FITC/7-AAD based flow cytometry analysis relative to control; assay type: functional
HCT-116 [6] = assay: Induction of ROS generation in human HCT-116 cells assessed as increase in intracellular ROS level measured after 48 hrs DCFH-DA staining based analysis; assay type: functional, cell-based
[7] = target: T1, ATP-dependent Clp protease proteolytic subunit, mitochondrial; assay: Binding affinity to human ClpP expressed in Escherichia coli assessed as dissociation constant by ITC method
HCT-116 [8] = assay: Antiproliferative activity against human HCT-116 cells assessed reduction in clone formation measured after 48 hrs by crystal violet staining based analysis; assay type: functional, cell-based
HCT-116 [9] = assay: Induction of apoptosis in human HCT-116 cells assessed as cell death at 20 uM measured after 48 hrs by annexin V-FITC/7-AAD based flow cytometry analysis relative to control; assay type: functional
HCT-116 [10] = assay: Induction of apoptosis in human HCT-116 cells measured after 48 hrs by annexin V-FITC/7-AAD based flow cytometry analysis; assay type: functional, cell-based
SW480 = assay: cells; conditions: Homo sapiens, SW480, 72 h
Description: Antiproliferative activity against human SW480 cells assessed as inhibition of cell growth measured after 72 hrs by CCK-8 method

HCT-116 [11] = assay: Antiproliferative activity against ClpP knockdown human HCT-116 cells assessed as fold increase in IC50; assay type: functional
[12] = Antiproliferative activity against human L02 cells assessed as inhibition of cell growth measured after 72 hrs by CCK-8 method; assay type: toxicity, cell-based
HCT-116 [13] = assay: Inhibition of cell migration in human HCT-116 cells at 5 to 20 uM measured after 24 to 48 hrs by microscopy based analysis; assay type: functional; conditions: dose 5-20 µM, time 24-48 hrs
[14] = Antiproliferative activity against human HCoEpiC cells assessed as inhibition of cell growth measured after 72 hrs by CCK-8 method; assay type: toxicity, cell-based
HCT-116 [15] = assay: Inhibition of mitochondrial function in human HCT-116 cells assessed as reduction in ATP production; assay type: functional, cell-based
DLD-1 = assay: cells; conditions: Homo sapiens, DLD-1, 72 h
Description: Antiproliferative activity against human DLD-1 cells assessed as inhibition of cell growth measured after 72 hrs by CCK-8 method

HCT-116 [16] = assay: Induction of cell cycle arrest in human HCT-116 cells assessed as increase in number of cells at G2 phase at 5 uM measured after 48 hrs by PI staining based flow cytometry analysis; assay type: functional
SW-620 = assay: cells; conditions: Homo sapiens, SW-620, 72 h
Description: Antiproliferative activity against human SW-620 cells assessed as inhibition of cell growth measured after 72 hrs by CCK-8 method

HCT-116 [17] = assay: Induction of cell cycle arrest in human HCT-116 cells assessed as effect on number of cells at G1 phase at 5 to 20 uM measured after 48 hrs by PI staining based flow cytometry analysis; assay type: functional; conditions: dose 5-20 µM
[18] = Antiproliferative activity against rat H9c2 cells assessed as inhibition of cell growth measured after 72 hrs by CCK-8 method; assay type: toxicity, cell-based
HCT-116 [19] = assay: Induction of cell cycle arrest in human HCT-116 cells assessed as increase in number of cells at G2 phase at high dose measured after 48 hrs by PI staining based flow cytometry analysis; assay type: functional
Cell membrane = assay: Induction of mitochondrial membrane potential loss in human HCT-116 cells assessed as increase in green fluorescence at high dose measured after 48 hrs by JC-1 staining based microscopy analysis; assay type: cell membranes
[20] = target: T1, ATP-dependent Clp protease proteolytic subunit, mitochondrial; conditions: filed as agonist, dose 100.0 µM, time 30.0 min
[21] = Oral bioavailability in Sprague-Dawley rat at 15 mg/kg by LC-MS/MS analysis; assay type: ADME, organism-based; conditions: in vivo
[22] = Tmax in Sprague-Dawley rat at 15 mg/kg, po by LC-MS/MS analysis; assay type: ADME, organism-based; conditions: in vivo
[23] = Cmax in Sprague-Dawley rat at 15 mg/kg, po by LC-MS/MS analysis; assay type: ADME, organism-based; conditions: in vivo
[24] = Clearance in Sprague-Dawley rat at 5 mg/kg, iv by LC-MS/MS analysis; assay type: ADME, organism-based; conditions: in vivo
[25] = MRT (0 to 12hrs) in Sprague-Dawley rat at 15 mg/kg, po by LC-MS/MS analysis; assay type: ADME, organism-based; conditions: in vivo
[26] = Cmax in Sprague-Dawley rat at 5 mg/kg, iv by LC-MS/MS analysis; assay type: ADME, organism-based; conditions: in vivo
[27] = Half life in Sprague-Dawley rat at 5 mg/kg, iv by LC-MS/MS analysis; conditions: in vivo
[28] = AUC (0 to 12hrs) in Sprague-Dawley rat at 5 mg/kg, iv by LC-MS/MS analysis; assay type: ADME, organism-based; conditions: in vivo
[29] = AUC (0 to 12hrs) in Sprague-Dawley rat at 15 mg/kg, po by LC-MS/MS analysis; assay type: ADME, organism-based; conditions: in vivo
[30] = Half life in Sprague-Dawley rat at 15 mg/kg, po by LC-MS/MS analysis; conditions: in vivo
[31] = MRT (0 to 12 hrs) in Sprague-Dawley rat at 5 mg/kg, iv by LC-MS/MS analysis; assay type: ADME, organism-based; conditions: in vivo

T1 sequence (Q16740 whole entry): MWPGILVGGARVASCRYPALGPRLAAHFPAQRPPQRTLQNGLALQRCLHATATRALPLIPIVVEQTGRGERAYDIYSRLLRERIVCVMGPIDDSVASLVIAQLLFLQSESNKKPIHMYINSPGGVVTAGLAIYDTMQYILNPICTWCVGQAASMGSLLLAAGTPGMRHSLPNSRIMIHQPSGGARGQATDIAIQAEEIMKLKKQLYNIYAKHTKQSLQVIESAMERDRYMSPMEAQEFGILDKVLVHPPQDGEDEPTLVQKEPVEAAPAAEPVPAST

O=C(NCc1ccc(C(F)(F)F)cc1)C1=CCCN(Cc2ccc(F)c(F)c2)C1
IC50 (HCT-116 [1]): 25.6 µM

O=C(Nc1ccc(Cl)cc1)c1cccc(NC(=O)c2cc(C(F)(F)F)cc(C(F)(F)F)c2)c1
IC50 (HCT-116 [1]): 25.3 µM

N#Cc1cccc(CN2CCCC(C(=O)NCc3ccc(Cl)cc3Cl)C2)c1 (configuration not stated)
IC50 (HCT-116 [1]): 40.9 µM

N#Cc1cccc(CN2CCCC(C(=O)Nc3ccc(Cl)cc3)C2)c1 (configuration not stated)
IC50 (HCT-116 [1]): 20.3 µM

O=C(NCc1ccc(C(F)(F)F)cc1)C1=CCCN(Cc2cc(C(F)(F)F)cc(C(F)(F)F)c2)C1
IC50 (HCT-116 [1]): 25.3 µM

O=C(Nc1cc(Cl)c(Cl)c(Cl)c1)C1CCCN(C(=O)c2cc(C(F)(F)F)cc(C(F)(F)F)c2)C1 (configuration not stated)
IC50 (HCT-116 [1]): 16.4 µM

O=C(CCNC(=O)c1cc(C(F)(F)F)cc(C(F)(F)F)c1)Nc1ccc(Cl)cc1
IC50 (HCT-116 [1]): 64.5 µM

CC(ONC(=O)c1cc(C(F)(F)F)cc(C(F)(F)F)c1)C(=O)Nc1ccc(Cl)cc1 (configuration not stated)
Activity (HCT-116 [2]): 22%
EC50 [3]: 0.0105 µM
IC50 (HCT-15): 37.5 µM
IC50 at 72 h [4]: 55.4 µM
Activity (HCT-116 [5]): 15%
Activity (HCT-116 [6]): Active
Kd [7]: 8.41 µM
Activity (HCT-116 [8]): Dose-Dependent Effect
Activity (HCT-116 [9]): 40%
Activity (HCT-116 [10]): Dose-Dependent Effect
IC50 (SW480): 41.3 µM
fold change (FC) (HCT-116 [11]): 1.5
IC50 at 72 h [12]: 30.4 µM
inhibition (HCT-116 [13]): Active
IC50 at 72 h [14]: 61.7 µM
inhibition (HCT-116 [15]): Active
IC50 (DLD-1): 29.8 µM
Activity (HCT-116 [16]): 20%
IC50 (SW-620): 15.5 µM
Activity (HCT-116 [17]): inactive
IC50 at 72 h [18]: 35.5 µM
Activity (HCT-116 [19]): ~40%
IC50 (HCT-116 [1]): 20.5 µM
Activity (Cell membrane): Active
ΔTm [20]: 4 °C

N#Cc1cccc(CN2CCCC(C(=O)NCc3ccc4c(c3)OCO4)C2)c1 (configuration not stated)
IC50 (HCT-116 [1]): 50 µM

O=C(Nc1ccc(Oc2ccccc2)cc1)C1CCCN(C(=O)c2cc(C(F)(F)F)cc(C(F)(F)F)c2)C1 (configuration not stated)
IC50 (HCT-116 [1]): 40.1 µM

CC1(C)CCC(NC(=O)C2CCCN(C(=O)c3cc(C(F)(F)F)cc(C(F)(F)F)c3)C2)CC1 (configuration not stated)
IC50 (HCT-116 [1]): 80.4 µM

O=C(Nc1ccc(Cl)cc1)C1CCCN(C(=O)c2cc(C(F)(F)F)cc(C(F)(F)F)c2)C1 (configuration not stated)
IC50 (HCT-116 [1]): 16.7 µM

O=C(Nc1ccc(Cl)cc1)C1CCCN(C(=O)Cc2cc(Cl)ccc2F)C1 (configuration not stated)
IC50 (HCT-116 [1]): 67.5 µM

CC(NC(=O)c1cc(C(F)(F)F)cc(C(F)(F)F)c1)C(=O)Nc1ccc(Cl)cc1 (configuration not stated)
IC50 (HCT-116 [1]): 58.4 µM

O=C(Nc1ccc(Cl)cc1)C1=CCCN(Cc2ccccc2)C1
IC50 (HCT-116 [1]): 83.5 µM

Cc1ccccc1CN1C(=O)C2=C(CCN(Cc3ccccc3)C2)N2CCN=C12 [DORDAVIPRONE]
bioavailability [21]: 15.3%
Tmax [22]: 24 min
Cmax [23]: 566 ng/mL
clearance [24]: 42.7 mL/min/kg
MRT last [25]: 90 min
Cmax [26]: 2770 ng/mL
half-life [27]: 54 min
AUC(0-t) [28]: 1960 ng·h/mL
AUC(0-t) [29]: 894 ng·h/mL
half-life [30]: 66 min
MRT last [31]: 54 min

O=C(NCCc1ccc(Cl)cc1)C1CCCN(C(=O)c2cc(C(F)(F)F)cc(C(F)(F)F)c2)C1 (configuration not stated)
IC50 (HCT-116 [1]): 56.5 µM

O=C(NCCNC(=O)c1cc(C(F)(F)F)cc(C(F)(F)F)c1)c1ccc(Cl)cc1
IC50 (HCT-116 [1]): 76.9 µM
